Values after ≈ are worked out from the molar mass of the structure shown. Starred links: 1 amine or outer side, 2 acyl side, 3 side chain; linkers in the order of their positions; H or OH if unused. Positions of bridges follow the written chain, without caps; N, C: chain ends. Non-standard residues stand in square brackets, D forms with d. Residues, ends and D or L forms follow the SMILES beside them. *: point of attachment. Benzoyl(4-OPh) = O=C(c1ccc(Oc2ccccc2)cc1)*; Heptanoyl(6-Me) = CC(C)CCCCC(=O)*; NH(2-ClPh) = Clc1ccccc1N*; Dab = NCC[C@H](N)C(=O)O; CO = O=C([*:1])[*:2]

The test system of the assay is Pseudomonas aeruginosa. The experiment in a line: Antibacterial activity against Pseudomonas aeruginosa PAO1 assessed as inhibition of bacterial growth incubated for 24 hrs by broth microdilution method. The following applies: read-out: MIC100. The assay is classed as functional.
Take `CC(N[C@@H](CCN)C(=O)N[C@H](C(=O)N[C@@H](CCN)C(=O)N[C@H]1CCNC(=O)[C@H]([C@@H](C)O)NC(=O)[C@H](CCN)NC(=O)[C@H](CCN)NC(=O)[C@H](CC(C)C)NC(=O)[C@@H](Cc2ccccc2)NC(=O)[C@H](CCN)NC1=O)[C@@H](C)O)=C1C(=O)CC(C)(C)CC1=O`: the MIC is 32 µg/mL (≈ 26.1 µM). The value for `CC(C)C[C@@H]1NC(=O)[C@@H](Cc2ccccc2)NC(=O)[C@H](CCN)NC(=O)[C@@H](NC(=O)[C@H](CCN)NC(=O)[C@@H](NC(=O)[C@H](CCN)NC(=O)Nc2ccccc2Cl)[C@@H](C)O)CCNC(=O)[C@H]([C@@H](C)O)NC(=O)[C@H](CCN)NC(=O)[C@H](CCN)NC1=O` ({NH(2-ClPh)-CO}-[Dab]T[Dab][Dab][Dab][dF]L[Dab][Dab]T; lactam 4-C) was 4 µg/mL (≈ 3.29 µM); that for `CC[C@H](C)CCCCC(=O)N[C@@H](CCN)C(=O)N[C@H](C(=O)N[C@@H](CCN)C(=O)N[C@H]1CCNC(=O)[C@H]([C@@H](C)O)NC(=O)[C@H](CCN)NC(=O)[C@H](CCN)NC(=O)[C@H](CC(C)C)NC(=O)[C@@H](Cc2ccccc2)NC(=O)[C@H](CCN)NC1=O)[C@@H](C)OC(=O)[C@@H](N)CC(C)C` was 4 µg/mL (≈ 3.04 µM). On to `CC(C)CCCCC(=O)N[C@@H](CCN)C(=O)N[C@H](C(=O)N[C@@H](CCN)C(=O)N[C@H]1CCNC(=O)[C@H]([C@@H](C)O)NC(=O)[C@H](CCN)NC(=O)[C@H](CCN)NC(=O)[C@H](CC(C)C)NC(=O)[C@@H](Cc2ccccc2)NC(=O)[C@H](CCN)NC1=O)[C@@H](C)O` [POLYMYXIN B2] ({Heptanoyl(6-Me)}-[Dab]T[Dab][Dab][Dab][dF]L[Dab][Dab]T; lactam 4-C), for which the MIC was determined as 1 µg/mL (≈ 0.841 µM). On to `CC(C)C[C@@H]1NC(=O)[C@@H](Cc2ccccc2)NC(=O)[C@H](CCN)NC(=O)[C@@H](NC(=O)[C@H](CCN)NC(=O)[C@@H](NC(=O)[C@H](CCN)NC(=O)CCCCCCCN(Cc2ccccn2)Cc2ccccn2)[C@@H](C)O)CCNC(=O)[C@H]([C@@H](C)O)NC(=O)[C@H](CCN)NC(=O)[C@H](CCN)NC1=O`, for which the MIC came to 32 µg/mL (≈ 23.1 µM). On to `CC(C)C[C@@H]1NC(=O)[C@@H](Cc2ccccc2)NC(=O)[C@H](CCN)NC(=O)[C@@H](NC(=O)[C@H](CCN)NC(=O)[C@@H](NC(=O)[C@H](CCN)NC(=O)c2ccc(Oc3ccccc3)cc2)[C@@H](C)O)CCNC(=O)[C@H]([C@@H](C)O)NC(=O)[C@H](CCN)NC(=O)[C@H](CCN)NC1=O` ({Benzoyl(4-OPh)}-[Dab]T[Dab][Dab][Dab][dF]L[Dab][Dab]T; lactam 4-C), for which the MIC came to 4 µg/mL (≈ 3.18 µM). Turning to `CC(NCC[C@H](NC(=O)[C@H](CCN)NC(=O)CCCCC(C)C)C(=O)N[C@@H](CCN)C(=O)N[C@H]1CCNC(=O)[C@H]([C@@H](C)O)NC(=O)[C@H](CCN)NC(=O)[C@H](CCN)NC(=O)[C@H](CC(C)C)NC(=O)[C@@H](Cc2ccccc2)NC(=O)[C@H](CCN)NC1=O)=C1C(=O)CC(C)(C)CC1=O`, the MIC stood at 8 µg/mL (≈ 5.91 µM).

As to `CC[C@H](C)CCCCC(=O)N[C@@H](CCN)C(=O)N[C@H](C(=O)N[C@@H](CCN)C(=O)N[C@H]1CCNC(=O)[C@H]([C@@H](C)O)NC(=O)[C@H](CCN)NC(=O)[C@H](CCN)NC(=O)[C@H](CC(C)C)NC(=O)[C@@H](Cc2ccccc2)NC(=O)[C@H](CCN)NC1=O)[C@@H](C)OC(=O)[C@@H](N)C(C)C`, the MIC was 2 µg/mL (≈ 1.54 µM). With `CC[C@H](C)CCCCC(=O)N[C@@H](CCN)C(=O)N[C@H](C(=O)N[C@@H](CCN)C(=O)N[C@H]1CCNC(=O)[C@H]([C@@H](C)O)NC(=O)[C@H](CCN)NC(=O)[C@H](CCN)NC(=O)[C@H](CC(C)C)NC(=O)[C@@H](Cc2ccccc2)NC(=O)[C@H](CCN)NC1=O)[C@@H](C)OC(=O)[C@@H]1CCCN1`, the MIC turned out to be 2 µg/mL (≈ 1.54 µM). As to `CC[C@H](C)CCCCC(=O)N[C@@H](CCN)C(=O)N[C@H](C(=O)N[C@@H](CCN)C(=O)N[C@H]1CCNC(=O)[C@H]([C@@H](C)O)NC(=O)[C@H](CCN)NC(=O)[C@H](CCN)NC(=O)[C@H](CC(C)C)NC(=O)[C@@H](Cc2ccccc2)NC(=O)[C@H](CCN)NC1=O)[C@@H](C)OC(=O)[C@@H](N)[C@@H](C)CC`, the MIC amounted to 2 µg/mL (≈ 1.52 µM). In the case of `CC[C@H](C)CCCCC(=O)N[C@@H](CCN)C(=O)N[C@H](C(=O)N[C@@H](CCN)C(=O)N[C@H]1CCNC(=O)[C@H]([C@@H](C)OC(=O)CN)NC(=O)[C@H](CCN)NC(=O)[C@H](CCN)NC(=O)[C@H](CC(C)C)NC(=O)[C@@H](Cc2ccccc2)NC(=O)[C@H](CCN)NC1=O)[C@@H](C)OC(=O)CN`, the MIC turned out to be 2 µg/mL (≈ 1.52 µM).

Regarding `CCCCCCCC(=O)N[C@@H](CCN)C(=O)NCC(=O)N[C@@H](CCN)C(=O)N[C@H]1CCNC(=O)[C@H]([C@@H](C)O)NC(=O)[C@H](CCN)NC(=O)[C@H](CCN)NC(=O)[C@H](CC(C)C)NC(=O)[C@@H](Cc2ccccc2)NC(=O)[C@H](CCN)NC1=O`, the MIC was 64 µg/mL (≈ 55.9 µM). Regarding `CC[C@H](C)CCCCC(=O)N[C@@H](CCN)C(=O)N[C@H](C(=O)N[C@@H](CCN)C(=O)N[C@H]1CCNC(=O)[C@H]([C@@H](C)O)NC(=O)[C@H](CCN)NC(=O)[C@H](CCN)NC(=O)[C@H](CC(C)C)NC(=O)[C@@H](Cc2ccccc2)NC(=O)[C@H](CCN)NC1=O)[C@@H](C)OC(=O)[C@@H](N)CCCCN`, the MIC is 2 µg/mL (≈ 1.5 µM). Regarding `CC(C)CCCCC(=O)N[C@@H](CCN)C(=O)N[C@@H](CC(=O)O)C(=O)N[C@@H](CCN)C(=O)N[C@H]1CCNC(=O)[C@H]([C@@H](C)O)NC(=O)[C@H](CCN)NC(=O)[C@H](CCN)NC(=O)[C@H](CC(C)C)NC(=O)[C@@H](Cc2ccccc2)NC(=O)[C@H](CCN)NC1=O`, the MIC came to 64 µg/mL (≈ 53.2 µM). Turning to `CC(C)CCCCC(=O)N[C@@H](CCN)C(=O)N[C@H](C(=O)N[C@@H](CCN)C(=O)N[C@H]1CCNC(=O)[C@H]([C@@H](C)OC(=O)[C@@H](N)CC(=O)O)NC(=O)[C@H](CCN)NC(=O)[C@H](CCN)NC(=O)[C@H](CC(C)C)NC(=O)[C@@H](Cc2ccccc2)NC(=O)[C@H](CCN)NC1=O)[C@@H](C)OC(=O)[C@@H](N)CC(=O)O`, the MIC was determined as 4 µg/mL (≈ 2.82 µM). The value for `CC(C)CCCCC(=O)N[C@@H](CCN)C(=O)N[C@H](C(=O)N[C@@H](CCN)C(=O)N[C@H]1CCNC(=O)[C@H]([C@@H](C)O)NC(=O)[C@H](CCN)NC(=O)[C@H](CCN)NC(=O)[C@H](CC(C)C)NC(=O)[C@@H](Cc2ccccc2)NC(=O)[C@H](CCN)NC1=O)[C@H](C)OC(=O)[C@@H](N)CCC(=O)O` was 2 µg/mL (≈ 1.52 µM); that for `CC(C)CCCCC(=O)N[C@@H](CCN)C(=O)N[C@@H](CCC(N)=O)C(=O)N[C@@H](CCN)C(=O)N[C@H]1CCNC(=O)[C@H]([C@@H](C)O)NC(=O)[C@H](CCN)NC(=O)[C@H](CCN)NC(=O)[C@H](CC(C)C)NC(=O)[C@@H](Cc2ccccc2)NC(=O)[C@H](CCN)NC1=O` was 128 µg/mL (≈ 105 µM); that for `CC(C)CCCCC(=O)N[C@@H](CCN)C(=O)N[C@H](C(=O)N[C@@H](CCN)C(=O)N[C@H]1CCNC(=O)[C@H]([C@@H](C)O)NC(=O)[C@H](CCN)NC(=O)[C@H](CCN)NC(=O)[C@H](CC(C)C)NC(=O)[C@@H](Cc2ccccc2)NC(=O)[C@H](CCN)NC1=O)[C@@H](C)OC(=O)[C@@H](N)[C@@H](C)O` was 2 µg/mL (≈ 1.55 µM). With `CC(C)CCCCC(=O)N[C@@H](CCN)C(=O)N[C@H](C(=O)N[C@@H](CCN)C(=O)N[C@H]1CCNC(=O)[C@H]([C@@H](C)OC(=O)[C@@H]2CCCN2)NC(=O)[C@H](CCN)NC(=O)[C@H](CCN)NC(=O)[C@H](CC(C)C)NC(=O)[C@@H](Cc2ccccc2)NC(=O)[C@H](CCN)NC1=O)[C@@H](C)OC(=O)[C@@H]1CCCN1`, the MIC stood at 2 µg/mL (≈ 1.45 µM). With `CC[C@H](C)CCCCC(=O)N[C@@H](CCN)C(=O)N[C@H](C(=O)N[C@@H](CCN)C(=O)N[C@H]1CCNC(=O)[C@H]([C@@H](C)O)NC(=O)[C@H](CCN)NC(=O)[C@H](CCN)NC(=O)[C@H](CC(C)C)NC(=O)[C@@H](Cc2ccccc2)NC(=O)[C@H](CCN)NC1=O)[C@@H](C)OC(=O)[C@H](C)N`, the MIC is 4 µg/mL (≈ 3.14 µM). With `CC[C@H](C)CCCCC(=O)N[C@@H](CCN)C(=O)N[C@H](C(=O)N[C@@H](CCN)C(=O)N[C@H]1CCNC(=O)[C@H]([C@@H](C)OC(=O)[C@@H]2CCCN2)NC(=O)[C@H](CCN)NC(=O)[C@H](CCN)NC(=O)[C@H](CC(C)C)NC(=O)[C@@H](Cc2ccccc2)NC(=O)[C@H](CCN)NC1=O)[C@@H](C)OC(=O)[C@@H]1CCCN1`, the MIC was found to be 2 µg/mL (≈ 1.43 µM). Turning to `CC[C@H](C)CCCCC(=O)N[C@@H](CCN)C(=O)N[C@H](C(=O)N[C@@H](CCN)C(=O)N[C@H]1CCNC(=O)[C@H]([C@@H](C)O)NC(=O)[C@H](CCN)NC(=O)[C@H](CCN)NC(=O)[C@H](CC(C)C)NC(=O)[C@@H](Cc2ccccc2)NC(=O)[C@H](CCN)NC1=O)[C@@H](C)OC(=O)[C@@H](N)CCC(=O)O`, the MIC was 1 µg/mL (≈ 0.75 µM). `CCCCCCCC(=O)N[C@@H](CCN)C(=O)N[C@@H](CO)C(=O)N[C@@H](CCN)C(=O)N[C@H]1CCNC(=O)[C@H]([C@@H](C)O)NC(=O)[C@H](CCN)NC(=O)[C@H](CCN)NC(=O)[C@H](CC(C)C)NC(=O)[C@@H](Cc2ccccc2)NC(=O)[C@H](CCN)NC1=O`: the MIC is 2 µg/mL (≈ 1.7 µM). In the case of `CC(C)CCCCC(=O)N[C@@H](CCN)C(=O)N[C@H](C(=O)N[C@@H](CCN)C(=O)N[C@H]1CCNC(=O)[C@H]([C@@H](C)O)NC(=O)[C@H](CCN)NC(=O)[C@H](CCN)NC(=O)[C@H](CC(C)C)NC(=O)[C@@H](Cc2ccccc2)NC(=O)[C@H](CCN)NC1=O)[C@@H](C)OC(=O)[C@@H](N)CC(=O)O`, the MIC worked out at 2 µg/mL (≈ 1.53 µM). Consider `CC[C@H](C)CCCCC(=O)N[C@@H](CCN)C(=O)N[C@H](C(=O)N[C@@H](CCN)C(=O)N[C@H]1CCNC(=O)[C@H]([C@@H](C)O)NC(=O)[C@H](CCN)NC(=O)[C@H](CCN)NC(=O)[C@H](CC(C)C)NC(=O)[C@@H](Cc2ccccc2)NC(=O)[C@H](CCN)NC1=O)[C@@H](C)OC(=O)[C@@H](N)CCSC`, for which the MIC turned out to be 2 µg/mL (≈ 1.5 µM). As to `CC[C@H](C)CCCCC(=O)N[C@@H](CCN)C(=O)N[C@H](C(=O)N[C@@H](CCN)C(=O)N[C@H]1CCNC(=O)[C@H]([C@@H](C)O)NC(=O)[C@H](CCN)NC(=O)[C@H](CCN)NC(=O)[C@H](CC(C)C)NC(=O)[C@@H](Cc2ccccc2)NC(=O)[C@H](CCN)NC1=O)[C@@H](C)OC(=O)[C@@H](N)Cc1c[nH]c2ccccc12`, the MIC is 2 µg/mL (≈ 1.44 µM). With `CC[C@H](C)CCCCC(=O)N[C@@H](CCN)C(=O)N[C@H](C(=O)N[C@@H](CCN)C(=O)N[C@H]1CCNC(=O)[C@H]([C@@H](C)O)NC(=O)[C@H](CCN)NC(=O)[C@H](CCN)NC(=O)[C@H](CC(C)C)NC(=O)[C@@H](Cc2ccccc2)NC(=O)[C@H](CCN)NC1=O)[C@@H](C)OC(=O)[C@@H](N)[C@@H](C)O`, the MIC was 2 µg/mL (≈ 1.53 µM).

Values taken from ChEMBL document CHEMBL4825673, “Total and Semisyntheses of Polymyxin Analogues with 2-Thr or 10-Thr Modifications to Decipher the Structure-Activity Relationship and Improve the Antibacterial Activity” (J Med Chem, 2021).
